Source: patent US20030134859A1 (SANKYO COMPANY, LIMITED, priority 2000, published 2003)
Where two headings read alike, the source gives them in different places.

How the values were obtained:
[1] = tested on: Rat white adipocytes; assay: Stimulation of differentiation of the adipocytes (Oil Red O); format: cell-based; conditions: 100 nM test compound, 5 days, Oil Red O ABS550, control = 100%, blank = 0%, Table 7; for activity at 0.1 µM: Rattus norvegicus, Adipocyte, 120 h, read-out: Rate of Differentiation (%)
Procedure: Rat white adipocytes contained in the white adipocyte culture kit, which was purchased from HOKUDO, were used. Mediums for proliferation and for differentiation-inducing, which were contained in the white adipocyte culture kit purchased from HOKUDO, were used.
Immediately after arrival of the purchased cells, all medium for transportation was discarded and replaced with 5 ml of proliferation medium (/25 cm^2-flask) and the cells were cultured for one day. Then, a cell suspension was prepared with proliferation medium so as to be 83,000 cells/mL, and the suspension was plated into a type I 96-well collagen-coated microplate (SUMITOMO BAKELITE CO., ltd.) so as to be 5,000 cells/well (60 μL/well). For the blank, the proliferation medium without the cells was plated into the well (blank well) of each plate.
Further, 1) in the group treated with the test compound, 3 μL/well of a solution in which the test compound (100 μM) was dissolved in DMSO solution and diluted with differentiation-inducing medium by 20 times (final concentration of the test compound: 100 nM, final concentration of DMSO: 0.1% (v/v)) were added to the well where the cells were plated. 2) In the control group, 3 μL/well of DMSO solution that was diluted with differentiation-inducing medium by 20 times (final concentration of DMSO: 0.1% (v/v)) were added to the well where the cells were plated. Further, 3) in the blank group, 3 μL/well of DMSO solution that was diluted with differentiation-inducing medium by 20 times (final concentration: 0.1% (v/v)) were added to the blank well.
After culturing for 5 days, all differentiation-inducing medium was discarded and replaced with 60 μL of 10% (v/v) of formaldehyde solution (for fixation) in each well and the cells were kept stationary for 20 min at room temperature. After this the fixative solution was discarded and replaced with 60 μL of 0.2% (v/v) Triton X (Sigma-Aldrich Japan K. K.) solution in each well and kept stationary for 5 min at the room temperature. Then all Triton X solution was discarded and replaced with 60 μL of 60% (v/v) isopropanol solution containing dissolved Oil Red 0 (Sigma-Aldrich Japan K. K.) so as to be 0.3%, which was adipose tissue staining solution, and the well was left stationary for 10 min at room temperature. After the adipose tissue staining solution was discarded, the well was washed twice with 60 μL of 60% (v/v) isopropanol solution. Then, 100 μL of the DMSO were added to each well and stirred for 5 min at room temperature. The absorbance was measured at 550 nm (ABS550) with a multi-plate reader (LabsSystems), and the stained amount by Oil Red 0 was determined. The measured level at ABS550 in the control group was defined as 100%, while the level at ABS550 in the blank group was defined as 0%. The differentiation rate (%) of the adipocytes treated with the test compound was calculated.

[2] = tested on: Mouse preadipocyte strain 3T3-L1; assay: Inhibition of differentiation as an indication of acetic acid uptake; format: cell-based; conditions: control (0.01% dimethylsulfoxide) = 100%; for activity at 0.1 µM: Mus musculus, read-out: Rate of Uptake (%) of [2-14C] acetic acid
Procedure, shortened: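 Differentiation is indexed by 1 hr [2-14C]acetic acid incorporation, measured by scintillation counting and given as uptake relative to 0.01% DMSO control (100%). Mouse 3T3-L1 preadipocytes, pre-grown 10 days, received 0.1 μM test substance throughout a 4-day insulin/IBMX/dexamethasone induction, followed by 2 days' maintenance culture.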

Compound | activity at 0.1 µM [1] [%] | activity at 0.1 µM ([2]; 3T3-L1, 0.1 μM test substance) [%] | Rate of Differentiation (%) [1] [%] | Rate of Uptake (%) of [2-14C] acetic acid ([2]; 0.1 μM test substance) [%] | activity at 0.1 µM ([2]; 0.1 μM test substance) [%]
O=C(Nc1ncc(Br)s1)c1cc([N+](=O)[O-])ccc1Cl [Example 48, N-(5-Bromothiazol-2-yl)-(2-chloro-5-nitrophenyl)carboxamide] | 131 | 70.3 | – | – | –
COC(=O)c1nccnc1NC(=O)c1cc([N+](=O)[O-])ccc1Cl [Example 60, N-(2-Metboxycarbonylpyrazin-3-yl)-(2-chloro-5-nitrophenyl)carboxamide] | – | – | 110.5 | 68.8 | –
Cc1ccnc(NC(=O)c2cc([N+](=O)[O-])ccc2Cl)c1[N+](=O)[O-] [Example 63, N-(4-Methyl-3-nitropyridin-2-yl)-(2-chloro-5-nitrophenyl)carboxamide] | 120 | – | – | – | 85.5
O=C(Nc1nc2ccc(F)cc2s1)c1cc([N+](=O)[O-])ccc1Cl [Example 70, N-(6-Fluorobenzothiazol-2-yl)-(2-chloro-5-nitrophenyl)carboxamide] | 122 | 70.2 | – | – | –
O=C(Nc1ncccc1[N+](=O)[O-])c1cc([N+](=O)[O-])ccc1Cl [Example 80, N-(3-Nitropyridin-2-yl)-(2-chloro-5-nitrophenyl)carboxamide] | 118 | – | – | – | 83.3
O=C(Nc1ccc(N2CCOCC2)cc1)c1cc([N+](=O)[O-])ccc1Cl [Example 113, N-[4-(Morpholin-4-yl)phenyl]-(2-chloro-5-nitrophenyl)carboxamide] | 111 | 84.6 | – | – | –
O=C(O)c1cccc(NC(=O)c2cc([N+](=O)[O-])ccc2Cl)c1 [Example 145, 3-(2-Chloro-5-nitrobenzoylamino)benzoic Acid] | 141 | 87.6 | – | – | –
O=C(Nc1cccnc1)c1ccc(NC(=O)c2cc([N+](=O)[O-])ccc2Cl)cc1 [Example 148, N-[4-(Pyridin-3-ylaminocarbonyl)phenyl]-(2-chloro-5-nitrophenyl)carboxamide] | 119 | 75.3 | – | – | –
N-(5-Bromo-3-nitropyridin-2-yl)-(−2-chloro-5-nitrophenyl-carboxamide [Example 84] | – | – | 151.4 | 59.5 | –
